From EP0070133B1, “Secondary phenylethanol amines, processes for their preparation and their pharmaceutical application” (priority 1981, dated 1983)
Where a name gives a salt, the structure may show the parent alone. Read-outs that look alike come from different tables or passages of the source.

How the values were obtained:
Female CFLP mice [1] = assay: Anti-hyperglycaemic activity: subcutaneous glucose load in fasted mice, area under blood glucose curve; type: in vivo; details: glucose 1 g/kg sc, 2 hour period, vs water control
Experimental: Female CFLP mice, each weighing approximately 25 g, were fasted for 24 hours prior to the study. The compounds under study were administered orally as an aqueous solution to each of 6 mice. 6 mice were given water as a control. 30 minutes later a blood sample (20 µl) was obtained from the tail for the analysis of blood glucose. Immediately after taking this blood sample, glucose (1 g/kg body weight) was administered subcutaneously to each mouse. Blood samples were then obtained from each mouse at 30 minute intervals for 120 minutes.
Compounds that produced a significant (P<0.05) reduction of blood glucose, compared with control mice given water, at any time interval, were considered active. The area under the blood glucose curve over the 2 hour period after the administration of the glucose was calculated for each compound and compared with the value for control animals.

Female CFLP mice [2] = assay: Effect on energy expenditure and food intake of mice; type: in vivo; details: Mus musculus, po, 21 h
Experimental: Female CFLP mice each weighing approximately 24 g, were given food and water ad lib before and during the experiment. The compounds were dissolved in water by addition of one mole of hydrochloric acid per mole of compound and these solutions were administered orally to each of 12 mice. A further 12 mice were dosed orally with water. The mice were placed in boxes through which air was drawn and the oxygen content of the air leaving the boxes was measured. […] The food intake of the mice was measured over this same period of 21 hours. The results are expressed as a percentage of the mean food intake or rate of energy expenditure of the mice dosed with water.

Rat hearts = assay: Cardiac activity: rat hearts perfused by the Langendorff procedure
Experimental: Rat hearts were perfused by the Langendorff procedure as follows:- • Hearts were dissected free within 30 seconds of death and reverse perfused via the aorta and coronary vessels with Krebs-Ringer bicarbonate solution (pH 7.4, 37°C) gassed with 95% oxygen:5% carbon dioxide at a flow rate between 8-12 cm^3/minute. Responses were observed after injection of drug dissolved in isotonic saline into the perfusion media.
Results are expressed as a percentage of the maximum response due to salbutamol.

genetically obese mice = assay: Anti-obesity activity: carcass composition after 28 days of daily dosing; type: in vivo
Experimental: The compounds were administered by oral gavage in water or carboxymethyl-cellulose suspension to genetically obese mice daily for 28 days. At the end of the time the carcass composition was determined. The results obtained were as follows:-

[3] = system: platelet aggregation in human whole blood; assay: Collagen-induced platelet aggregation in human whole blood in vitro; type: cell-based; details: Final Concentration in Whole Blood 100 μM; collagen EC50 in presence of compound divided by control EC50
Experimental: Collagen-induced platelet aggregation in human whole blood in vitro.
Collagen added to stirred citrated blood causes platelet aggregation. As the platelets aggregate, the concentration of single platelets falls. […] Inhibitors of aggregation, such as aspirin and dipyridamole, reduce the response to collagen.
Collagen (Hormon-Chemie, Munich) or 154 mM NaCl (control) was added to each aliquot of blood stirred at 1100 rpm in an aggregometer at 37° after 3 mins pre-incubation with compound or appropriate solvent. Aggregates were fixed by addition of 0.5 vol 4.5% formaldehyde or 0.05 vol phosphate-buffered glutaraldehyde. Single platelets were counted electronically. Responses, expressed as per cent fall in platelet count, were obtained to a range of collagen concentrations. The concentration producing 50% maximal effect (EC50) was estimated from log10 concentration-response curves. Dose-ratios were calculated by dividing the EC50 obtained in the presence of compound under test by the control EC50.

[4] = read-out: Mean Energy Expenditure (%)
[5] = 10 μg added to perfusate, perfused rat heart, read-out: Heart Rate
[6] = 10 μg added to perfusate, perfused rat heart, read-out: Heart Tension
[7] = Rattus norvegicus, read-out: Heart Rate
[8] = Rattus norvegicus, read-out: Heart Tension

Compound	Reduction in area under Blood glucose curve (%) (Female CFLP mice [1]; 1 μ moles/kg po)	Emax at 0.01 mg (Rat hearts; [5]) [%]	Emax at 0.01 mg (Rat hearts; [6]) [%]	Emax at 0.01 mg (Rat hearts; [7]) [%]	Emax at 0.01 mg (Rat hearts; [8]) [%]	other results
CNCCOc1ccc(CC(C)NCC(O)c2cccc(C(F)(F)F)c2)cc1 (stereo not drawn) [Example 1, N-[2-(4-(2-Methylaminoethoxy)phenyl)-1-methylethyll-2-hydroxy-2-(3-trifluoromethylphenyl)ethanaminedihydrochloride]	33	0	7			response vs control in vivo at 26.1 mg/kg (Female CFLP mice [2]; [4]): 129%; response vs control in vivo at 26.1 mg/kg (Female CFLP mice [2]; read-out: Mean Food Intake (%)): 98%
CNCCOc1ccc(CC(C)NCC(O)c2cccc(C(F)(F)F)c2)cc1 (stereo not drawn) [Example 1a, N-[2-(4-(2-Methylaminoethoxy)phenyl)-1-methylethyll-2-hydroxy-2-(3-trifluoromethylphenyl)ethanaminedihydrochloride]						response vs control in vivo at 2.61 mg/kg (Female CFLP mice [2]; [4]): 120%; response vs control in vivo at 2.61 mg/kg (Female CFLP mice [2]; read-out: Mean Food Intake (%)): 94%; g Lipid/Mouse Treated (genetically obese mice; 13.1 mg/kg p.o. daily for 28 days, Control 19.13): 12.54 g Lipid/Mouse
CC(Cc1ccc(OCCN(C)C)cc1)NCC(O)c1cccc(C(F)(F)F)c1.Cl.Cl (stereo not drawn) [Example 2, N-[2-(4-(2-Dimethylaminoethoxy)phenyl)-1-methylethyl]-2-hydroxy-2-(3-trifluoromethylphenyl)ethanamine dihydrochloride]				0	0	Reduction in area under Blood glucose curve (%) (Female CFLP mice [1]; 5 μ moles/kg po): 49%; response vs control in vivo at 26.9 mg/kg (Female CFLP mice [2]; [4]): 127%; response vs control in vivo at 26.9 mg/kg (Female CFLP mice [2]; read-out: Mean Food Intake (%)): 98%
CC(Cc1ccc(OCCNS(C)(=O)=O)cc1)NCC(O)c1cccc(C(F)(F)F)c1 (stereo not drawn) [Example 3, N-[2-(4-(2-Methylsulphonylaminoethoxy)phenyl)-1-methylethyl]-2-hydroxy-2-(3-trifluoromethylphenyl)ethanamine]	56	38	4			response vs control in vivo at 25.6 mg/kg (Female CFLP mice [2]; [4]): 125%; response vs control in vivo at 25.6 mg/kg (Female CFLP mice [2]; read-out: Mean Food Intake (%)): 83%
Br.Br.CNCCOc1ccc(CC(C)NCC(O)c2ccccc2F)cc1 (stereo not drawn) [Example 7, N-[2-(4-(2-Methylaminoethoxy)phenyl)-1-methylethyl]-2-hydroxy-2-(2-fluorophenyl)ethanamine dihydrobromide]	33			73	18	response vs control in vivo at 28.3 mg/kg (Female CFLP mice [2]; [4]): 125%; response vs control in vivo at 28.3 mg/kg (Female CFLP mice [2]; read-out: Mean Food Intake (%)): 109%
Br.Br.CNCCOc1ccc(CC(C)NCC(O)c2cccc(Br)c2)cc1 (stereo not drawn) [Example 8, N-[2-(4-(2-Methylaminoethoxy)phenyl)-1-methylethyl]-2-hydroxy-2-(3-bromophenyl)ethanamine dihydrobromide]	51			73	20	response vs control in vivo at 31.6 mg/kg (Female CFLP mice [2]; [4]): 135%; response vs control in vivo at 31.6 mg/kg (Female CFLP mice [2]; read-out: Mean Food Intake (%)): 97%; g Lipid/Mouse Treated (genetically obese mice; 15.8 mg/kg p.o. daily for 28 days, Control 19.89): 17.91 g Lipid/Mouse; Dose-Ratio [3]: 4.8
CNCCOc1ccc(CC(C)NCC(O)c2cccc(F)c2)cc1 (stereo not drawn) [Example 9, N-[2-(4-(2-Methylaminoethoxy)phenyl-1-methylethyl]-2-hydroxy-2-(3-fluorophenyl)ethanaminedihydrobromide]	39	73	53			response vs control in vivo at 28.3 mg/kg (Female CFLP mice [2]; [4]): 129%; response vs control in vivo at 28.3 mg/kg (Female CFLP mice [2]; read-out: Mean Food Intake (%)): 109%
CNCCOc1ccc(CC(C)NCC(O)c2ccccc2)cc1 (stereo not drawn) [Example 10, N-[2-(4-(2-Methylaminoethoxy)phenyl-1-methylethyl]-2-hydroxy-2-phenylethanaminedihydrobromide]	30	14	33			response vs control in vivo at 27.3 mg/kg (Female CFLP mice [2]; [4]): 118%; response vs control in vivo at 27.3 mg/kg (Female CFLP mice [2]; read-out: Mean Food Intake (%)): 89%
CNCCOc1ccc(CC(C)NCC(O)c2cccc(Cl)c2F)cc1.Cl.Cl (stereo not drawn) [Example 11, N-[2-(4-(2-Methylaminoethoxy)phenyl)-1-methylethyl]-2-hydroxy-2-(2-fluoro-3-chlorophenyl)ethanamine dihydrochloride]	64			45	60	response vs control in vivo at 25.3 mg/kg (Female CFLP mice [2]; [4]): 148%; response vs control in vivo at 25.3 mg/kg (Female CFLP mice [2]; read-out: Mean Food Intake (%)): 79%
